Converted amounts (≈) assume the structure as drawn.
Experiments:
Test in all cases: MIC, CLSI broth microdilution
Format in all cases: cell-based
[1] = system: Klebsiella pneumoniae SHV-12; conditions: SHV12, SHV-12, read-out: MIC
Method: (§1) Gram-negative and Gram-positive bacterial strains used during the in vitro minimum inhibitory concentration (MIC) determination were obtained either from the American Type Culture Collection (ATCC) or from clinical specimens. All strains were characterized genotypically and the respective antibiotic resistance markers for each strain were identified.
(§2) Isolates were sub-cultured onto appropriate media and stocked in skim milk at −80° C. Following two subcultures from frozen stock, in vitro antimicrobial susceptibility testing was performed using the Clinical and Laboratory Standards Institute (CLSI) broth microdilution method. Briefly, fresh cultures were suspended in culture media to give a final stock inoculum size of 5×10^7 colony forming units per milliliter of broth (CFU/mL). […] 100 μL of the stock solutions were added to the first wells in a 96-well plate and were then diluted using a 2-fold dilution method to give a range of 32-0.025 μg/mL. 100 μL of the bacterial suspensions were then added to the 96-well plates to give a final working inoculum size of 5×10^5 CFU/mL. The final compound concentration range was 16-0.0125 μg/mL. […] MICs for comparator agents were determined using custom-designed, in-house prepared 96-well broth microdilution panels.

[2] = system: Klebsiella pneumoniae KPC-3; conditions: KPC3, KPC-3, read-out: MIC
Method: as §1, §2

[3] = system: Acinetobacter baumannii ATCC 19606; conditions: ATCC19606
Method: as §1, §2

[4] = system: Escherichia coli pSMART_Cfreundii_AmpC
Method: as §1, §2

[5] = system: Serratia marcescens AmpC overexpressed
Method: as §1, §2

[6] = system: Klebsiella pneumoniae OXA-48, SHV-1
Method: as §1, §2

[7] = system: Escherichia coli Empty pSMART plasmid
Method: as §1, §2

[8] = system: Escherichia coli CMY-2; conditions: CMY2
Method: as §1, §2

[9] = system: Escherichia coli Isogenic TEM-10
Method: as §1, §2

[10] = system: Klebsiella pneumoniae OXA-163, OXA-1_OXA-30, SHV-1, TEM-1
Method: as §1, §2

[11] = system: Escherichia coli SHV-12; conditions: SHV12
Method: as §1, §2

[12] = system: Escherichia coli CTX-M-15; conditions: CTXM15
Method: as §1, §2

[13] = system: Escherichia coli ATCC 25922; conditions: ATCC25922
Method: as §1, §2

[14] = system: Klebsiella aerogenes VIM-1, SHV-12
Method: as §1, §2

[15] = system: Pseudomonas aeruginosa AmpC overexpressed
Method: as §1, §2

[16] = system: Serratia marcescens SME-2; conditions: SME2
Method: as §1, §2

[17] = system: Klebsiella oxytoca KPC-2, TEM-1; conditions: KPC-2, TEM-1, read-out: MIC
Method: as §1, §2

[18] = system: Enterobacter cloacae species complex NDM-1
Method: as §1, §2

[19] = system: Pseudomonas aeruginosa ATCC 27853; conditions: ATCC27853
Method: as §1, §2

[20] = system: Escherichia coli pSMART_Ecloacae_AmpC
Method: as §1, §2

[21] = system: Klebsiella pneumoniae KPC-2; conditions: KPC2
Method: as §1, §2

[22] = system: Pseudomonas aeruginosa OprD negative
Method: as §1, §2

[23] = system: Escherichia coli Isogenic TEM-26
Method: as §1, §2

[24] = system: Citrobacter freundii species complex OXA-181; conditions: Citrobacter freundii species complex, OXA-181; read-out: MIC
Method: as §1, §2

| SMILES | MIC [1] [µg/mL] | MIC [2] [µg/mL] | MIC [3] [µg/mL] | MIC [4] [µg/mL] | MIC [5] [µg/mL] | MIC [6] [µg/mL] | MIC [7] [µg/mL] | MIC [8] [µg/mL] | MIC [9] [µg/mL] | MIC [10] [µg/mL] | MIC [11] [µg/mL] | MIC [12] [µg/mL] | MIC [13] [µg/mL] | MIC [14] [µg/mL] | MIC [15] [µg/mL] | MIC [16] [µg/mL] | MIC [17] [µg/mL] | MIC [18] [µg/mL] | MIC [19] [µg/mL] | MIC [20] [µg/mL] | other results |
| --- | --- | --- | --- | --- | --- | --- | --- | --- | --- | --- | --- | --- | --- | --- | --- | --- | --- | --- | --- | --- | --- |
| Nc1nc(/C(=N/OC2(C(=O)O)CCC(Cl)(Cl)CC2)C(=O)N[C@H]2CON(C3(C(=O)O)C[C@H](N4C(=O)c5cc(O)c(O)cc5C4=O)C(=O)O3)C2=O)cs1 (stereo partly drawn) [Cmpd 12, (4S)-2-[(4S)-4-{[(2Z)-2-(2-amino-1,3-thiazol-4-yl)-2-{[(1-carboxy-4,4-dichlorocyclohexyl)oxy]imino}acetyl]amino}-3-oxo-1,2-oxazolidin-2-yl]-4-(5,6-dihydroxy-1,3-dioxo-1,3-dihydro-2H-isoindol-2-yl)-5-oxooxolane-2-carboxylic acid] | 0.03 (≈ 0.0389 µM) | 0.06 (≈ 0.0778 µM) | 0.25 (≈ 0.324 µM) | 0.06 (≈ 0.0778 µM) | 0.25 (≈ 0.324 µM) | ≤ 0.015 | 0.03 (≈ 0.0389 µM) | 1 (≈ 1.3 µM) | 0.06 (≈ 0.0778 µM) | 0.12 (≈ 0.156 µM) | 2 (≈ 2.59 µM) | 4 (≈ 5.18 µM) | 0.25 (≈ 0.324 µM) | 0.5 (≈ 0.648 µM) | 2 (≈ 2.59 µM) | 0.12 (≈ 0.156 µM) | ≤ 0.015 | 2 (≈ 2.59 µM) | 0.25 (≈ 0.324 µM) | 0.06 (≈ 0.0778 µM) | MIC [21]: 0.06 µg/mL (≈ 0.0778 µM); MIC [22]: 0.25 µg/mL (≈ 0.324 µM); MIC [23]: 0.06 µg/mL (≈ 0.0778 µM); MIC [24]: 0.03 µg/mL (≈ 0.0389 µM) |
| Nc1nc(/C(=N/OC2(C(=O)O)CC3CCC(C2)O3)C(=O)N[C@H]2CON(C3(C(=O)O)C[C@H](N4C(=O)c5cc(O)c(O)cc5C4=O)C(=O)O3)C2=O)cs1 (stereo partly drawn) [Cmpd 13, 3-({(Z)-[1-(2-amino-1,3-thiazol-4-yl)-2-({(4S)-2-[(4S)-2-carboxy-4-(5,6-dihydroxy-1,3-dioxo-1,3-dihydro-2H-isoindol-2-yl)-5-oxooxolan-2-yl]-3-oxo-1,2-oxazolidin-4-yl}amino)-2-oxoethylidene]amino}oxy)-8-oxabicyclo[3.2.1]octane-3-carboxylic acid] | 0.03 (≈ 0.0411 µM) | 0.06 (≈ 0.0821 µM) | 0.12 (≈ 0.164 µM) | 0.06 (≈ 0.0821 µM) | 0.12 (≈ 0.164 µM) | 0.0149 (≈ 0.0204 µM) | 0.12 (≈ 0.164 µM) | 0.5 (≈ 0.684 µM) | 0.03 (≈ 0.0411 µM) | 0.12 (≈ 0.164 µM) | 2 (≈ 2.74 µM) | 4 (≈ 5.47 µM) | 0.12 (≈ 0.164 µM) | 0.25 (≈ 0.342 µM) | 1 (≈ 1.37 µM) | 0.25 (≈ 0.342 µM) | 0.0149 (≈ 0.0204 µM) | 1 (≈ 1.37 µM) | 0.25 (≈ 0.342 µM) | 0.06 (≈ 0.0821 µM) | MIC [21]: 0.25 µg/mL (≈ 0.342 µM); MIC [22]: 0.25 µg/mL (≈ 0.342 µM); MIC [23]: 0.03 µg/mL (≈ 0.0411 µM); MIC [24]: 0.0149 µg/mL (≈ 0.0204 µM) |
| Nc1nc(/C(=N/OC2(C(=O)O)CC3CCC(C2)O3)C(=O)N[C@H]2CON(C3(C(=O)O)C[C@H](N4C(=O)c5cc(O)c(O)nc5C4=O)C(=O)O3)C2=O)cs1 (stereo partly drawn) [Cmpd 27, 3-({(Z)-[1-(2-amino-1,3-thiazol-4-yl)-2-({(4S)-2-[(4S)-2-carboxy-4-(2,3-dihydroxy-5,7-dioxo-5,7-dihydro-6H-pyrrolo[3,4-b]pyridin-6-yl)-5-oxooxolan-2-yl]-3-oxo-1,2-oxazolidin-4-yl}amino)-2-oxoethylidene]amino}oxy)-8-oxabicyclo[3.2.1]octane-3-carboxylic acid] | 0.12 (≈ 0.164 µM) | 0.12 (≈ 0.164 µM) | 1 (≈ 1.37 µM) | 0.25 (≈ 0.342 µM) | 0.5 (≈ 0.683 µM) | 0.03 (≈ 0.041 µM) | 0.25 (≈ 0.342 µM) | 4 (≈ 5.47 µM) | 0.25 (≈ 0.342 µM) | 0.25 (≈ 0.342 µM) | 8 (≈ 10.9 µM) | 8 (≈ 10.9 µM) | 0.5 (≈ 0.683 µM) | 0.12 (≈ 0.164 µM) | 4 (≈ 5.47 µM) | 1 (≈ 1.37 µM) | 0.0149 (≈ 0.0204 µM) | 2 (≈ 2.73 µM) | 4 (≈ 5.47 µM) | 0.25 (≈ 0.342 µM) | MIC [21]: 0.06 µg/mL (≈ 0.082 µM); MIC [22]: 2 µg/mL (≈ 2.73 µM); MIC [23]: 0.12 µg/mL (≈ 0.164 µM); MIC [24]: 0.12 µg/mL (≈ 0.164 µM) |
| Nc1nc(/C(=N/OC2(C(=O)O)CCOCC2)C(=O)N[C@H]2CON(C3(C(=O)O)C[C@H](N4Cc5cc(O)c(O)cc5C4=O)C(=O)O3)C2=O)cs1 (stereo partly drawn) [Cmpd 29, 4-({(Z)-[1-(2-amino-1,3-thiazol-4-yl)-2-({(4S)-2-[(4S)-2-carboxy-4-(5,6-dihydroxy-1-oxo-1,3-dihydro-2H-isoindol-2-yl)-5-oxooxolan-2-yl]-3-oxo-1,2-oxazolidin-4-yl}amino)-2-oxoethylidene]amino}oxy)oxane-4-carboxylic acid] | 0.06 (≈ 0.0869 µM) | 0.06 (≈ 0.0869 µM) | 0.12 (≈ 0.174 µM) | 0.25 (≈ 0.362 µM) | 0.25 (≈ 0.362 µM) | 0.03 (≈ 0.0434 µM) | 0.5 (≈ 0.724 µM) | 2 (≈ 2.9 µM) | 0.03 (≈ 0.0434 µM) | 0.25 (≈ 0.362 µM) | 2 (≈ 2.9 µM) | 2 (≈ 2.9 µM) | 0.5 (≈ 0.724 µM) | 0.25 (≈ 0.362 µM) | 2 (≈ 2.9 µM) | 0.25 (≈ 0.362 µM) | 0.0149 (≈ 0.0216 µM) | 4 (≈ 5.79 µM) | 0.5 (≈ 0.724 µM) | 0.12 (≈ 0.174 µM) | MIC [21]: 0.0149 µg/mL (≈ 0.0216 µM); MIC [22]: 0.5 µg/mL (≈ 0.724 µM); MIC [23]: 0.03 µg/mL (≈ 0.0434 µM); MIC [24]: 0.12 µg/mL (≈ 0.174 µM) |
| Nc1nc(/C(=N/OC2(C(=O)O)CC3CCC(C2)O3)C(=O)N[C@H]2CON(C3(C(=O)O)C[C@H](N4Cc5cc(O)c(O)cc5C4=O)C(=O)O3)C2=O)cs1 (stereo partly drawn) [Cmpd 30, 3-({(Z)-[1-(2-amino-1,3-thiazol-4-yl)-2-({(4S)-2-[(4S)-2-carboxy-4-(5,6-dihydroxy-1-oxo-1,3-dihydro-2H-isoindol-2-yl)-5-oxooxolan-2-yl]-3-oxo-1,2-oxazolidin-4-yl}amino)-2-oxoethylidene]amino}oxy)-8-oxabicyclo[3.2.1]octane-3-carboxylic acid] | 0.25 (≈ 0.349 µM) | 0.12 (≈ 0.167 µM) | 0.5 (≈ 0.698 µM) | 0.25 (≈ 0.349 µM) | 0.5 (≈ 0.698 µM) | 0.06 (≈ 0.0837 µM) | 1 (≈ 1.4 µM) | 4 (≈ 5.58 µM) | 0.12 (≈ 0.167 µM) | 1 (≈ 1.4 µM) | 8 (≈ 11.2 µM) | 8 (≈ 11.2 µM) | 1 (≈ 1.4 µM) | 0.12 (≈ 0.167 µM) | 4 (≈ 5.58 µM) | 0.5 (≈ 0.698 µM) | 0.03 (≈ 0.0419 µM) | 4 (≈ 5.58 µM) | 4 (≈ 5.58 µM) | 0.25 (≈ 0.349 µM) | MIC [21]: 0.03 µg/mL (≈ 0.0419 µM); MIC [22]: 1 µg/mL (≈ 1.4 µM); MIC [23]: 0.5 µg/mL (≈ 0.698 µM); MIC [24]: 0.12 µg/mL (≈ 0.167 µM) |
| CC(C)(O/N=C(\C(=O)N[C@H]1CON(C2(C(=O)O)C[C@H](N3Cc4cc(O)c(O)cc4C3=O)C(=O)O2)C1=O)c1csc(N)n1)C(=O)O (stereo partly drawn) [Cmpd 35, (4S)-2-[(4S)-4-{[(2Z)-2-(2-amino-1,3-thiazol-4-yl)-2-{[(2-carboxypropan-2-yl)oxy]imino}acetyl]amino}-3-oxo-1,2-oxazolidin-2-yl]-4-(5,6-dihydroxy-1-oxo-1,3-dihydro-2H-isoindol-2-yl)-5-oxooxolane-2-carboxylic acid] | 0.06 (≈ 0.0925 µM) | 0.25 (≈ 0.385 µM) | 0.25 (≈ 0.385 µM) | 0.5 (≈ 0.771 µM) | 0.5 (≈ 0.771 µM) | 0.03 (≈ 0.0463 µM) | 0.06 (≈ 0.0925 µM) | 8 (≈ 12.3 µM) | 0.06 (≈ 0.0925 µM) | 0.5 (≈ 0.771 µM) | 1 (≈ 1.54 µM) | 1 (≈ 1.54 µM) | 0.5 (≈ 0.771 µM) | 1 (≈ 1.54 µM) | 2 (≈ 3.08 µM) | 0.25 (≈ 0.385 µM) | 0.0149 (≈ 0.023 µM) | 1 (≈ 1.54 µM) | 0.5 (≈ 0.771 µM) | 0.25 (≈ 0.385 µM) | MIC [21]: 0.12 µg/mL (≈ 0.185 µM); MIC [22]: 0.5 µg/mL (≈ 0.771 µM); MIC [23]: 0.12 µg/mL (≈ 0.185 µM); MIC [24]: 0.25 µg/mL (≈ 0.385 µM) |
